Results: US8575309B2, “Delta-opioid receptor selective analgesics” (Biousian Biosystems, Inc., priority 2008, dated 2013)
Like-named read-outs stand apart in the source and are kept apart here. Non-standard residues stand in square brackets, D forms with d. Residues, ends and D or L forms follow the SMILES beside them. *: point of attachment. βGlc = OC[C@H]1O[C@@H](*)[C@H](O)[C@@H](O)[C@@H]1O; Nle = CCCC[C@H](N)C(=O)O; Nva = CCC[C@H](N)C(=O)O

Columns and labels:
[1] = target: T1, human mu opioid receptor (hMOR) (Homo sapiens, UniProt P35372); assay: Radioligand competition binding, [3H]DAMGO, hMOR CHO cell membranes
T1 construct: expressed in transfected cells; membranes
T1 sequence (P35372 whole entry): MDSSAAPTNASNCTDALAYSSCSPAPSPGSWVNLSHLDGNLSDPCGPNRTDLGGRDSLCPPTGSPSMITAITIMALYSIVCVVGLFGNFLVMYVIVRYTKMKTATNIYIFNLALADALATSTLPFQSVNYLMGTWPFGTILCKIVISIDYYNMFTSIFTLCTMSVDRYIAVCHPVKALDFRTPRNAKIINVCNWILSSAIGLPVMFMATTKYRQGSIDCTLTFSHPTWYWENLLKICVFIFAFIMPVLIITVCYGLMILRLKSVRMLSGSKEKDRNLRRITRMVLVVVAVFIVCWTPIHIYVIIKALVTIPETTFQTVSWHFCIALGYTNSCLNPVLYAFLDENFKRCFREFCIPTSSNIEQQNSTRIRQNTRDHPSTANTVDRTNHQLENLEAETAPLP

[2] = target: T2, human kappa opioid receptor (hKOR) (Homo sapiens, UniProt P41145); assay: Radioligand binding, [3H]U69,593, hKOR CHO cell membranes; conditions: peptide at 10 uM, read-out: Max Inhib at 10 uM (%) Kappa [3H]U69,593 Mean
T2 construct: expressed in transfected cells; membranes
T2 sequence (P41145 whole entry): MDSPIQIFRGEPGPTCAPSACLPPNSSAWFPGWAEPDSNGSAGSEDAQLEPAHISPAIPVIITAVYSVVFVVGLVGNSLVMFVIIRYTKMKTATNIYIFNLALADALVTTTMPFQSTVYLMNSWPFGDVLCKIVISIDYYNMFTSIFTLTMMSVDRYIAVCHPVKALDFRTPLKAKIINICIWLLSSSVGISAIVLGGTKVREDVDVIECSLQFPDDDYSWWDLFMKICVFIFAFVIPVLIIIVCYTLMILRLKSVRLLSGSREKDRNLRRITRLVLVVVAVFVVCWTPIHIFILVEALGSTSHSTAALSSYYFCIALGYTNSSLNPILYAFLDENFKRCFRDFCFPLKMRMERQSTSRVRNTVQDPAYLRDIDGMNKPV

[3] = target: T3, human delta opioid receptor (hDOR) (Homo sapiens, UniProt P41143); assay: Radioligand competition binding, [3H]naltrindole, hDOR CHO cell membranes; conditions: for rank order of affinity for the delta receptor: peptides at 100 nM and 1 nM vs. 0.2 nM [3H]Naltrindole, 20 ug hDOR CHO cell membranes (FIGS. 1 and 2)
T3 construct: expressed in transfected cells; membranes
T3 sequence (P41143 whole entry): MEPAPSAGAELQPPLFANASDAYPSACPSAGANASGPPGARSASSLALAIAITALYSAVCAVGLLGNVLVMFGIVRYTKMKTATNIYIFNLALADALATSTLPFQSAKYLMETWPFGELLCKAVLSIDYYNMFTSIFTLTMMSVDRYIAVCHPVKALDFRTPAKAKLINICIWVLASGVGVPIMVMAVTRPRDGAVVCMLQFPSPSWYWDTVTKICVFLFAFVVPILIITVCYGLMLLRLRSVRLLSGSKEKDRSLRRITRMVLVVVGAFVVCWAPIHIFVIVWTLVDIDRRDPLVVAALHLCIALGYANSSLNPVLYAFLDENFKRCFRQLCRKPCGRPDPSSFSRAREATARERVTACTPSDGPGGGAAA

[4] = target: T4, hDOR (Homo sapiens, UniProt P41143); assay: [35S]GTPγS binding assay, hDOR CHO cell membranes; format: biochemical; conditions: for Antagonist Properties Imax (%) Delta Mean: cell wraps over r13-r15: No Inhibition; for Description: Delta: functional classification; for Emax: read-out: Agonist Properties EMax (%) Delta Mean
T4 construct: expressed in transfected cells; membranes
T4 sequence (P41143 whole entry): as above
Method: (§1) GTPγS binding assay to determine if the peptide is an agonist, antagonist, or partial agonist at the DOR. Membranes from the CHO cell lines, expressing either the MOR, DOR or KOR, will be incubated with 12 concentrations of each peptide for 60 min at 30° C. in a final volume of 0.5 mL of assay buffer (50 mM Tris-HCl, 3 mM MgCl2, 0.2 mM EGTA, 100 mM NaCl, pH 7.5) containing 3 μM GDP and 0.08 nM [^35S] GTPγS. Basal binding is determined in the presence of GDP and the absence of opioids, and nonspecific binding is determined by including 10 μM unlabeled […] GTPγS. The incubation is terminated by filtration under vacuum through glass fiber filters, followed by three washes with 3-ml ice-cold 50 mM Tris-HCl, pH 7.5. Samples are allowed to equilibrate overnight and are counted in 2 ml of Ecoscint A scintillation fluid for 2 min in a liquid scintillation counter.
(§2) GTPγS binding assay described in Example 3.

[5] = target: T5, hMOR (Homo sapiens, UniProt P35372); assay: [35S]GTPγS binding assay, hMOR CHO cell membranes; format: biochemical; conditions: for Antagonist Properties Imax (%) Mu Mean: cell wraps over r13-r15: No Inhibition; for Description: Mu: functional classification; for Emax: hMOR CHO cell membranes, @ 10 um, read-out: Agonist Properties EMax (%) Mu Mean
T5 construct: expressed in transfected cells; membranes
T5 sequence (P35372 whole entry): as the sequence (P35372 whole entry) above
Method: as §1, §2

[6] = system: mouse tail flick; assay: Mouse tail flick assay, oral availability of formulations; format: in vivo; conditions: for antinociceptive activity: 32 mg/kg

Q: Which results are given for `CCC[C@H](NC(=O)[C@H](CCC)NC(=O)[C@H](CCC(=O)O)NC(=O)[C@H](Cc1ccccc1)NC(=O)[C@@H](C)NC(=O)[C@@H](N)Cc1ccc(O)cc1)C(=O)N[C@@H](CO[C@@H]1O[C@H](CO)[C@@H](O)[C@H](O)[C@H]1O)C(N)=O` [Peptide 11005, H2N-YaFE-Nva-Nva-S(beta-D-Glc)-amide] (H-Y[dA]FE[Nva][Nva]S(βGlc)-NH2)?
A: Ki [1]: 710 nM; inhibition at 10 µM [2]: 5.3%; IC50 [3]: 61 nM; Ki [3]: 20 nM; rank order of affinity for the delta receptor [3]: [11001≈111003≈11008≈DPDDE]>[11005≈11006≈11007]>[11002≈11004]>Lsz27

Q: `CCCC[C@H](NC(=O)[C@H](CCC(=O)O)NC(=O)[C@H](Cc1ccccc1)NC(=O)[C@@H](C)NC(=O)[C@@H](N)Cc1ccc(O)cc1)C(=O)N[C@@H](CCCC)C(=O)N[C@H](C(N)=O)[C@@H](C)O[C@@H]1O[C@H](CO)[C@@H](O)[C@H](O)[C@H]1O` [Peptide 11008, H2N-YaFE-Nle-Nle-T(beta-D-Glc)-amide] (H-Y[dA]FE[Nle][Nle]T(βGlc)-NH2) was tested. Which EC50 [4] did it give?
A: 12 nM

Q: What about the “Antagonist Properties Imax (%) Delta Mean” value [4] of the same compound?
A: No

Q: What about the “Description: Delta” value [4] of the same compound?
A: Agonist

Q: And the Emax ([4]; hDOR CHO cell membranes)?
A: 75%

Q: What about the Ki [1] of the same compound?
A: 1100 nM

Q: What about the “Antagonist Properties Imax (%) Mu Mean” value [5] of the same compound?
A: No

Q: What about the “Description: Mu” value [5] of the same compound?
A: Very weak agonist

Q: And the Emax [5]?
A: 27%

Q: And the inhibition at 10 µM [2]?
A: 2.9%

Q: And the “efficacy of oral formulation versus unformulated glycopeptide” value ([6]; oral formulation, 3.2 mg/kg)?
A: just slightly lower efficacy than that produced by 32 mg/kg of unformulated glycopeptide 11008

Q: And the antinociceptive activity ([6]; oral formulation)?
A: 75%

Q: And the antinociceptive activity ([6]; saline formulation (unformulated))?
A: 30%

Q: What about the IC50 [3] of the same compound?
A: 42 nM

Q: What about the Ki [3] of the same compound?
A: 14 nM

Q: And the “rank order of affinity for the delta receptor” value [3]?
A: [11001≈111003≈11008≈DPDDE]>[11005≈11006≈11007]>[11002≈11004]>Lsz27

Q: What about the “lower affinity for delta than DPDPE” value ([3]; relative to DPDPE) of the same compound?
A: ~3 fold

Q: With `CCCC[C@H](NC(=O)[C@H](CCC(=O)O)NC(=O)[C@H](Cc1ccccc1)NC(=O)[C@@H](C)NC(=O)[C@@H](N)Cc1ccc(O)cc1)C(=O)N[C@@H](CCCC)C(=O)N[C@H](C(N)=O)[C@@H](C)O` [Peptide 11009, H2N-YaFE-Nle-Nle-T-amide] (H-Y[dA]FE[Nle][Nle]T-NH2) as the compound, how does the “Antagonist Properties Imax (%) Delta Mean” value [4] read?
A: No

Q: And the “Description: Delta” value [4]?
A: Agonist

Q: What about the EC50 ([4]; hDOR CHO cell membranes, read-out: Agonist Properties EC50 (nM) Delta Mean) of the same compound?
A: 12 nM

Q: What about the Emax ([4]; hDOR CHO cell membranes) of the same compound?
A: 67%

Q: What about the “Antagonist Properties Imax (%) Mu Mean” value [5] of the same compound?
A: No

Q: And the “Description: Mu” value [5]?
A: Very weak agonist

Q: What about the Emax [5] of the same compound?
A: 42%

Q: With “H2N-YaFE-Nle-Nle-S(beta-D-Glc)-amide (H-Y[dA]FE[Nle][Nle]S(βGlc)-NH2; SMILES CCCC[C@H](NC(=O)[C@H](CCCC)NC(=O)[C@H](CCC(=O)O)NC(=O)[C@H](Cc1ccccc1)NC(=O)[C@@H](C)NC(=O)[C@@H](N)Cc1ccc(O)cc1)C(=O)N[C@@H](CO[C@@H]1O[C@H](CO)[C@@H](O)[C@H](O)[C@H]1O)C(N)=O) [Peptide 11006]” as the compound, how does the “rank order of affinity for the delta receptor” value [3] read?
A: [11001≈111003≈11008≈DPDDE]>[11005≈11006≈11007]>[11002≈11004]>Lsz27

Q: Which “rank order of affinity for the delta receptor” value [3] does the source give for “H2N-YaFE-Nva-Nva-T(beta-D-Glc)-amide (H-Y[dA]FE[Nva][Nva]T(βGlc)-NH2; SMILES CCC[C@H](NC(=O)[C@H](CCC(=O)O)NC(=O)[C@H](Cc1ccccc1)NC(=O)[C@@H](C)NC(=O)[C@@H](N)Cc1ccc(O)cc1)C(=O)N[C@@H](CCC)C(=O)N[C@H](C(N)=O)[C@@H](C)O[C@@H]1O[C@H](CO)[C@@H](O)[C@H](O)[C@H]1O) [Peptide 11007]” here?
A: [11001≈111003≈11008≈DPDDE]>[11005≈11006≈11007]>[11002≈11004]>Lsz27

Q: For “H2N-YaFHLAS(beta-D-Glc)-amide (H-Y[dA]FHLAS(βGlc)-NH2; SMILES CC(C)C[C@H](NC(=O)[C@H](Cc1c[nH]cn1)NC(=O)[C@H](Cc1ccccc1)NC(=O)[C@@H](C)NC(=O)[C@@H](N)Cc1ccc(O)cc1)C(=O)N[C@@H](C)C(=O)N[C@@H](CO[C@@H]1O[C@H](CO)[C@@H](O)[C@H](O)[C@H]1O)C(N)=O) [Peptide 11002]”, which “rank order of affinity for the delta receptor” value [3] is on record?
A: [11001≈111003≈11008≈DPDDE]>[11005≈11006≈11007]>[11002≈11004]>Lsz27

Q: How did the “rank order of affinity for the delta receptor” value [3] turn out when “H2N-YaFHLAT(beta-D-Glc)-amide (H-Y[dA]FHLAT(βGlc)-NH2; SMILES CC(C)C[C@H](NC(=O)[C@H](Cc1c[nH]cn1)NC(=O)[C@H](Cc1ccccc1)NC(=O)[C@@H](C)NC(=O)[C@@H](N)Cc1ccc(O)cc1)C(=O)N[C@@H](C)C(=O)N[C@H](C(N)=O)[C@@H](C)O[C@@H]1O[C@H](CO)[C@@H](O)[C@H](O)[C@H]1O) [Peptide 11004]” was run?
A: [11001≈111003≈11008≈DPDDE]>[11005≈11006≈11007]>[11002≈11004]>Lsz27

Q: How did the “rank order of affinity for the delta receptor” value [3] turn out when “H2N-YmFHLMS(beta-D-Glc)-amide (H-Y[dM]FHLMS(βGlc)-NH2; SMILES CSCC[C@H](NC(=O)[C@H](CC(C)C)NC(=O)[C@H](Cc1c[nH]cn1)NC(=O)[C@H](Cc1ccccc1)NC(=O)[C@@H](CCSC)NC(=O)[C@@H](N)Cc1ccc(O)cc1)C(=O)N[C@@H](CO[C@@H]1O[C@H](CO)[C@@H](O)[C@H](O)[C@H]1O)C(N)=O) [Peptide 11001]” was run?
A: [11001≈111003≈11008≈DPDDE]>[11005≈11006≈11007]>[11002≈11004]>Lsz27

Q: “H2N-YmFHLMT(beta-D-Glc)-amide (H-Y[dM]FHLMT(βGlc)-NH2; SMILES CSCC[C@H](NC(=O)[C@H](CC(C)C)NC(=O)[C@H](Cc1c[nH]cn1)NC(=O)[C@H](Cc1ccccc1)NC(=O)[C@@H](CCSC)NC(=O)[C@@H](N)Cc1ccc(O)cc1)C(=O)N[C@H](C(N)=O)[C@@H](C)O[C@@H]1O[C@H](CO)[C@@H](O)[C@H](O)[C@H]1O) [Peptide 11003]” was tested. Which “rank order of affinity for the delta receptor” value [3] did it give?
A: [11001≈111003≈11008≈DPDDE]>[11005≈11006≈11007]>[11002≈11004]>Lsz27
